{"source": "patent USRE43712E1", "about": "“Methods for assaying for antidepressant therapy markers” (The Board of Trustees of the Uniersity of Illinois, priority 2000, dated 2012)", "key": {"Gsα [1]": {"test_system": "Gsα", "test": "Cellular localization of Gsα in C6-2B cells, immunofluorescence laser scanning confocal microscopy", "assay_type": "cell-based"}, "Goα": {"test_system": "Goα", "test": "Cellular localization of Goα in C6-2B cells, immunofluorescence confocal microscopy", "assay_type": "cell-based", "conditions": "10 μM desipramine 3 days, approximately 500 cells, FIG. 9", "method": "C6-2B cells (between passages 30 and 50) were plated onto coverslips and allowed to attach overnight in Dulbecco's modified Eagle's medium. 4.5 g/l glucose, 10% bovine serum, and 100 μg/ml penicillin and streptomycin at 37° C. in a humidified 10% CO2 atmosphere. […] Therefore, the latter treatment paradigm was used in these experiments because it was easier to maintain the cell cultures for 3 days. […] The culture media and drug were changed daily. […] After the treatment duration, the cells were incubated in drug-free media for 45 to 60 minutes before fixation.\nAfter treatment, cells were washed once with phosphate-buffered saline (PBS, […] NaCl, 2.6 mM KCl, 5.4 mM NaαPO4 7H2O, pH 7.4) and fixed with ice-cold methanol for 10 minutes. Cells were then washed three times with PBS followed by 2 h of blocking in 5% normal goat serum/0.2% fish skin gelatin in PBS. Primary antibody was added for 1.5 h, Gsα/RM1 (PerkinElmer Life Sciences, Boston, Mass.) 1:50 and Goα (Santa Cruz Biotechnology, Santa Cruz, Calif.) 2 μg/ml, followed by three washes with PBS. Oregon Green-labeled secondary antibody (Molecular Probes, Eugene, Oreg.) was added at a concentration of 8 μg/ml for 1 h followed by three PBS washes. […] Approximately 2100 cells from control and desipramine-treated coverslips were counted by two investigators blind to the experimental conditions over the course of the five experiments. […]"}, "Gsα [2]": {"test_system": "Gsα", "test": "Gsα in Triton-insoluble, caveolin-enriched versus Triton-soluble fraction of C6-2B cells (sucrose density gradient, immunoblot)", "assay_type": "cell-based", "conditions": "chronic treatment, FIG. 3C", "method": "(§1) Rat cortex membrane, C6-2B cell membranes, or Triton extracts of each membrane preparation were subjected to SDS-PAGE followed by electrotransfer to polyvinylidene difluoride (PVDF) membrane. The PVDF membrane was incubated with a phosphate-buffered saline/Tween 20 Buffer (140 mM NaCl, […]. 0.1% Tween 20, pH 7.4) and 3% bovine serum albumin. The membrane was then incubated with polyclonal rabbit antisera against the various G protein subunits [RM (Gsα) or 116 (Gi1, Gi2, Gi3α)] at a 1:25,000 (RM) or 1:5,000 (116) dilution (see below for source of antibodies). […] Immunoreactivity was detected with an enhanced chemiluminescence (ECL) western blot detection system (Amersham) in accord with the manufacturer's instructions. The developed autoradiographs were analyzed by densitometry."}, "Gsα [3]": {"test_system": "Gsα", "test": "Detergent extraction of Gsα from rat synaptic membrane after chronic antidepressant treatment", "assay_type": "in vivo", "conditions": "short-term treatment (1-day treatment of cells or 1-week treatment of rats)"}, "Gsα [4]": {"test_system": "Gsα", "test": "Sequential detergent extraction (Triton X-100 / Triton X-114) of Gsα from C6-2B glioma membranes", "assay_type": "cell-based", "conditions": "C6-2B cells, 10 μM, 3 days; mean ± SEM of 4-5 experiments", "method": "(§2) C6-2B cells (between passages 20 and 40) were grown in 175-cm^2 flasks in Dulbecco's modified Eagle medium, 4.5 g of glucose/L, 10% bovine serum, in a 10% CO2 atmosphere, at 37° C. for 3 days after splitting. […] Male Sprague-Dawley rats weighing 150-200 g were fed ad libitum and maintained in a 12-h light/dark cycle. […] 36:803-838, 1989]. […] Rat cerebral cortex membranes were prepared according to the method of Rasenick et al. [Nature, 294:560-562; 1981].\nMembrane proteins were extracted sequentially from C6-2B or rat synaptic membranes as described [Yan et al., J. Neurochem., 66:1489-1495; 1996]. These membranes were stirred on ice in HEPES (15 mM, pH 7.4) containing 1% Triton X-100 for 60 min followed by centrifugation at 100,000 g for 60 min at 4° C. The supernatant was reserved (Triton X-100 extract), and the resulting pellet was resuspended in Tris (15 mM, pH 7.4) containing 1.4% Triton X-114 and 150 mM NaCl. The solution was stirred for 60 min at 4° C. and centrifuged for 30 min at 100,000 g in the cold. The supernatant was saved (Triton X-114 extract). These supernatants and remaining pellet (remainder) were subjected to sodium dodecyl sulfate (SDS)-polyacrylamide gel electophoresis (PAGE) using 10% gels. All of the extraction buffers contained 1 mM PMSF and 1 mM EGTA.\nas §1\nA membrane-enriched fraction was prepared (see Example 1), and membrane proteins were extracted sequentially with Triton X-100 (Tx 100) and Triton X-114 (Tx 114). Equal amounts of these extracts were subjected to SDS-PAGE and transferred to PVDF membrane. The long and short forms of Gsα (GsαL and GsαS) from different fractions were identified by immunodetection.\nExperiments were conducted according to the method set forth in Example 1 to assess the effects of different antidepressants on the detergent extraction of Gsα from C6-2B glioma cells.\nThe ratios of the percentage of Gsα extracted by the two detergents in the treatment versus control groups were compared and are set forth in Table 2 as percentage of control (i.e., each Triton X-100 extract was compared with the untreated Triton X-100 extract; the same was done for Triton X-114 extracts as well as the remainder)."}, "Gsα [5]": {"test_system": "Gsα", "test": "Content of G protein (Gsα) in C6-2B glioma membranes after antidepressant treatment, quantitative immunoblot", "assay_type": "cell-based", "method": "as §2, §1\nPurified recombinant GsαL (long form of Gsα; 1-10 ng/lane) was subjected to SDS-PAGE and transferred to PVDF membranes. The blots were incubated with antibody against Gsα (RM) and processed by ECL. Films were analyzed on a Molecular Dynamics densitometer, and the volume of each band was quantified and used to make a standard curve.\nExperiments were conducted to determine whether Gsα is quantitatively altered by antidepressant therapy. For quantification of Gsα in C6-2B membrane, a standard curve was created using purified recombinant […]. Pure Gsα (1-20 ng/well) was subjected to SDS-PAGE and transferred to a PVDF membrane, Gsα was immunodetected by antisera against the as subunit of G protein.\nTo estimate the effect of antidepressant treatment on the amount of Gsα in C6-2B membranes, equal amounts (10 μg) of C6-2B glioma membrane proteins in control and chronically (3 days) antidepressant-treated groups were subjected to SDS-PAGE. Gsα was immunodetected by antisera against the αs subunit of G protein."}, "[6]": {"conditions": "C6-2B membranes, 10 μM drug for 3 days, mean ± SEM of 4-5 experiments"}}, "note": "Marks after values point to notes of the source that are not given here."}
{"smiles": "CNCCCN1c2ccccc2CCc2ccccc21", "note": "[Desipramine, desipramine]", "values": [{"measurement": "Intense Gsα staining at the process tips", "setting": "Gsα [1]; 3 μM for five days", "value": "do not"}, {"measurement": "Number of cells lacking Gsα in the process tips versus control", "setting": "Gsα [1]; acute treatment, one day, 10 μM", "value": "not significantly different from the control"}, {"measurement": "Change in the distribution of Goα", "setting": "Goα", "value": "little if any change"}, {"measurement": "Decrease of the amount of Gsα in the caveolin-enriched Triton-insoluble fraction, normalized to equal caveolin", "setting": "Gsα [2]", "value": "~50", "unit": "%"}]}
{"smiles": "CNCCC(Oc1ccc(C(F)(F)F)cc1)c1ccccc1", "note": "(stereo not shown) [Fluoxetine, fluoxetine]", "values": [{"measurement": "Effect of short-term treatment on the parameters examined", "setting": "Gsα [3]", "value": "without effect"}, {"measurement": "GsαL in Triton X-114 extract, % of corresponding value in control group", "setting": "Gsα [4]", "value": "84.4 ± 2.9^b %"}, {"measurement": "GsαS in Remainder, % of corresponding value in control group", "setting": "Gsα [4]", "value": "99.7 ± 3.1", "unit": "%"}, {"measurement": "GsαS in Triton X-100 extract, % of corresponding value in control group", "setting": "Gsα [4]", "value": "215.9 ± 30.9^a %"}, {"measurement": "GsαS in Triton X-114 extract, % of corresponding value in control group", "setting": "Gsα [4]", "value": "92.2 ± 1.3^b %"}, {"measurement": "Quantity of G proteins in membrane, treated versus control", "setting": "Gsα [5]; C6-2B cells, 10 μM, 3 days, p>0.05", "value": "no significant differences"}, {"measurement": "G protein amount, Total", "setting": "Gsα [5]; [6]", "value": "12.49 ± 0.67 ng/10 ug of membrane protein"}, {"measurement": "G protein amount, αsL", "setting": "Gsα [5]; [6]", "value": "7.23 ± 0.56 ng/10 ug of membrane protein"}, {"measurement": "G protein amount, αsS", "setting": "Gsα [5]; [6]", "value": "5.65 ± 0.74 ng/10 ug of membrane protein"}]}
